US11917908B2, “Organic compound, optical device, light-emitting device, light-emitting apparatus, electronic device, and lighting device” (SEMICONDUCTOR ENERGY LABORATORY CO., LTD., priority 2019, dated 2024)

Tests used:
Format in all cases: physicochemical
[1] = Thermogravimetry-differential thermal analysis (TG-DTA), weight reduction temperature; details: for Temperature at TG −5% (weight reduction temperature): weight reduced from initial weight by 5%; for Temperature at TG −5% (weight reduction temperature) / Temperature at TG −10% (weight reduction temperature) / Temperature at TG −50% (weight reduction temperature): 10 Pa, temperature rising rate 10° C./min; for Temperature at TG −10% (weight reduction temperature): weight reduced from initial weight by 10%; for Temperature at TG −50% (weight reduction temperature): weight reduced from initial weight by 50%
Protocol: The thermogravimetry-differential thermal analysis (TG-DTA) of these four substances was performed. The measurement was performed with a high vacuum differential type differential thermal balance (TG-DTA2410SA, produced by Bruker AXS K.K.). […] The temperatures of the time when the weight of the organic compounds is reduced from the initial weight by 5%, 10%, and 50% (weight reduction temperature) are shown in Table 3.

[2] = Solubility in a solvent (toluene, 25° C.); details: for solubility: organic solvent or mixture, 1M
Protocol: The measurement results on the solubility of 3,10PCA2Nbf(IV)-02 and 3,10mmtBuPCA2Nbf(IV)-02 in a solvent are shown below. The solubility in the table are that in toluene at 25° C. Consequently, the organic compound of one embodiment of the present invention has improved solubility in a solvent owing to the bonding of the secondary or tertiary alkyl groups having 3 to 6 carbon atoms and having a branched carbon atom which is bonded to the phenyl group to the two meta-positions of the phenyl group bonded to the 9-position of the carbazolyl group. Thus, the organic compound of one embodiment of the present invention can be easily produced owing to the easy purification.

[3] = Behaviour at sublimation purification; details: at the time of sublimation purification

c1ccc(N(c2ccc3c(c2)oc2cc4cc5c(cc4cc23)oc2cc(N(c3ccccc3)c3ccc4c6ccccc6n(-c6ccccc6)c4c3)ccc25)c2ccc3c4ccccc4n(-c4ccccc4)c3c2)cc1 [3,10PCA2Nbf(IV)-02, 3,10-bis[N-(9-phenyl-9H-carbazol-2-yl)-N-phenylamino]naphtho[2,3-b;6,7-b′]bisbenzofuran]
Temperature at TG −5% (weight reduction temperature) [1]: 398 °C | Temperature at TG −10% (weight reduction temperature) [1]: 411 °C | Temperature at TG −50% (weight reduction temperature) [1]: 442 °C | solubility [2]: < 10 mM

CCc1cc(CC)cc(-n2c3ccccc3c3ccc(N(c4ccccc4)c4ccc5c(c4)oc4cc6cc7c(cc6cc45)oc4cc(N(c5ccccc5)c5ccc6c8ccccc8n(-c8cc(CC)cc(CC)c8)c6c5)ccc47)cc32)c1 [3,10mmEtPCA2Nbf(IV)-02, N,N-bis[9-(3,5-diethylphenyl)-9H-carbazol-2-yl]-N,N-diphenyl-naphtho[2,3-b;6,7-b′]bisbenzofuran-3,10-diamine]
Temperature at TG −5% (weight reduction temperature) [1]: 380 °C | Temperature at TG −10% (weight reduction temperature) [1]: 402 °C | Temperature at TG −50% (weight reduction temperature) [1]: 436 °C

CCCCCCc1cc(CCCCCC)cc(-n2c3ccccc3c3ccc(N(c4ccccc4)c4ccc5c(c4)oc4cc6cc7c(cc6cc45)oc4cc(N(c5ccccc5)c5ccc6c8ccccc8n(-c8cc(CCCCCC)cc(CCCCCC)c8)c6c5)ccc47)cc32)c1 [3,10mmHexPCA2Nbf(IV)-02, N,N-bis[9-(3,5-dihexylphenyl)-9H-carbazol-2-yl]-N,N-diphenyl-naphtho[2,3-b;6,7-b′]bisbenzofuran-3,10-diamine]
Temperature at TG −5% (weight reduction temperature) [1]: 384 °C | Temperature at TG −10% (weight reduction temperature) [1]: 407 °C | Temperature at TG −50% (weight reduction temperature) [1]: 442 °C | Stability at sublimation purification [3]: decomposed at the time of sublimation purification

CC(C)(C)c1cc(-n2c3ccccc3c3ccc(N(c4ccccc4)c4ccc5c(c4)oc4cc6cc7c(cc6cc45)oc4cc(N(c5ccccc5)c5ccc6c8ccccc8n(-c8cc(C(C)(C)C)cc(C(C)(C)C)c8)c6c5)ccc47)cc32)cc(C(C)(C)C)c1 [3,10mmtBuPCA2Nbf(IV)-02, N,N-bis[9-(3,5-di-tert-butylphenyl)-9H-carbazol-2-yl]-N,N-diphenyl-naphtho[2,3-b;6,7-b′]bisbenzofuran-3,10-diamine]
Sublimability (from weight reduction temperatures) ([1]; comparison of the four substances of Table 3): highest sublimability | Temperature at TG −5% (weight reduction temperature) [1]: 378 °C | Temperature at TG −10% (weight reduction temperature) [1]: 394 °C | Temperature at TG −50% (weight reduction temperature) [1]: 423 °C | Solubility 0.01M ([2]; 0.01M): ∘ | Solubility 0.1M ([2]; 0.1M): ∘ | solubility [2]: < 1000 mM
